Source: patent US10760052B2, “Method of inhibiting tau phosphorylation” (priority 2012, dated 2020)
Like-named read-outs stand apart in the source and are kept apart here.

Target: T1, mu opiate receptor (MOR) (Rattus norvegicus, UniProt P33535)
T1 construct: from tissue; host or cells: striatum (membrane preparation)
Format: biochemical

[1] = [35S]GTPγS binding to Gαo in striatal membranes, compound 0.1 μM
[2] = [35S]GTPγS binding to Gαo in striatal membranes, compound 1 μM
[3] = [35S]GTPγS binding to Gαo in striatal membranes, compound 1 μM plus 1 μM β-funaltrexamine (MOR antagonist)

T1 sequence (P33535 whole entry): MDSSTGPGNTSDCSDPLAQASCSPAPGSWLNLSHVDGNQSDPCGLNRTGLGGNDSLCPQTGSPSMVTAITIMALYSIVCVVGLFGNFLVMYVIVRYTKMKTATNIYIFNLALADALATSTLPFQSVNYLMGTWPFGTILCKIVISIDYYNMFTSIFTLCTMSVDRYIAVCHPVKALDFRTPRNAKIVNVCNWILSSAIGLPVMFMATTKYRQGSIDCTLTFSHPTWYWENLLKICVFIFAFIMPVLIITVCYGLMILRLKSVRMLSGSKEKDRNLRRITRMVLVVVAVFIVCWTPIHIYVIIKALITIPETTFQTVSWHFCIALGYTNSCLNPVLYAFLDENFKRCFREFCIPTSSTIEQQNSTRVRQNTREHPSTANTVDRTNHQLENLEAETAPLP

Row | Structure (SMILES) | % DAMGO (0.1 μM) [%] | % DAMGO (1 μM) [%] | % DAMGO + BFNA [%] | Concentration of FLNA-Binding Compound as Agonist 0.1 μM [1] [%] | Concentration of FLNA-Binding Compound as Agonist 1 μM [2] [%] | Concentration of FLNA-Binding Compound as Agonist 1 μM + BFNA [3] [%] | [35S]GTPγS binding, FLNA-Binding Compound as Agonist at 0.1 μM [%] | [35S]GTPγS binding, FLNA-Binding Compound as Agonist at 1 μM [%] | [35S]GTPγS binding, FLNA-Binding Compound as Agonist at 1 μM + BFNA [%] | Concentration of FLNA-Binding Compound as Agonist 0.1 μM [%] | Concentration of FLNA-Binding Compound as Agonist 1 μM [%] | Concentration of FLNA-Binding Compound as Agonist 1 μM + BFNA [%] | [35S]GTPγS binding, FLNA-Binding Compound as Agonist at 0.1 μM (0.1 μM compound, striatal membranes, Series C-2) [%] | [35S]GTPγS binding, FLNA-Binding Compound as Agonist at 1 μM + BFNA (1 μM compound + 1 μM β-FNA (selective MOR antagonist), Series C-2) [%] | [35S]GTPγS binding, FLNA-Binding Compound as Agonist at 1 μM (1 μM compound, striatal membranes, Series C-2) [%]
1 | COc1c2c(cc3c1C(CC(=O)CCc1ccc(F)cc1)[N+](C)(C)CC3)OCO2 (stereo not drawn) [Compound B0018] | 70.3 | 53.5 | 69.1 | 118.8 | 143.0 | 45.6 | – | – | – | – | – | – | – | – | –
2 | CC1CCC(C(C)C)C(OCC(O)CN2CCSC2)C1 (stereo not drawn) [Compound A0002] | 104.1 | 86.6 | 24.5 | 155.6 | 199.4 | 6.5 | – | – | – | – | – | – | – | – | –
3 | CC1CN(CC(O)COc2ccccc2)CC(C)O1 (stereo not drawn) [Compound A0025] | 33.2 | 54.5 | 198.5 | 58.6 | 138.7 | 52.2 | – | – | – | – | – | – | – | – | –
4 | COc1c2c(cc3c1C(CC(=O)Cc1ccccc1C)N(C)CC3)OCO2 (stereo not drawn) [Compound B0053] | 94.8 | 137.0 | 809.0 | 160.2 | 299.8 | 134.3 | – | – | – | – | – | – | – | – | –
5 | O=C1CNC2(CCNCC2)N1Cc1ccccc1 [Compound C0114M] | 77.6 | 71.4 | 91.3 | – | – | – | 114.0 | 144.3 | 35.9 | – | – | – | – | – | –
6 | C[C@@H](NC(=O)[C@@H](N)Cc1ccc(O)cc1)C(=O)NCC(=O)N(C)[C@@H](Cc1ccccc1)C(=O)NCCO [DAMGO, reference compound] | – | – | – | – | – | – | 168.5 | 266.1 | 53.2 | 168.5 | 266.1 | 53.2 | – | – | –
7 | CC1CCC(C(C)C)C(OCC(O)CN2CCN(CCc3ccccc3)CC2)C1 (stereo not drawn) [Compound A0020] | 100.9 | 88.7 | 194.2 | 168.6 | 217.4 | 67.4 | – | – | – | – | – | – | – | – | –
8 | CC(=O)c1ccc(S(=O)(=O)N2C(Cc3c[nH]cn3)C(=O)NC23CCNCC3)cc1 (stereo not drawn) [Compound C0119M] | 71.9 | 83.0 | 89.3 | – | – | – | 105.7 | 167.8 | 35.1 | – | – | – | – | – | –
9 | O=S(=O)(c1ccc(Br)cc1Br)N1CCC2(CC1)OCCN2S(=O)(=O)c1ccc(Br)cc1Br [Compound C0070] | 96.2 | 95.9 | 331.0 | 165.6 | 210.8 | 114.2 | – | – | – | – | – | – | – | – | –
10 | O=S(=O)(c1ccc(F)cc1)N1CCC2(CC1)OCCN2S(=O)(=O)c1ccc(F)cc1 [Compound C0029] | 91.2 | 113.1 | 37.8 | 175.4 | 308.8 | 16.6 | – | – | – | – | – | – | – | – | –
11 | COc1c2c(cc3c1OCO3)CCN(CC(O)COC1CC(C)CCC1C(C)C)C2 (stereo not drawn) [Compound A0061] | 70.7 | 85.5 | 26.8 | 110.3 | 197.1 | 10.7 | – | – | – | – | – | – | – | – | –
12 | O=C1CN(Cc2ccccc2)C2(CCN(S(=O)(=O)c3cc(Cl)cc(Cl)c3O)CC2)N1 [Compound C0138M] | 86.3 | 90.9 | 131.0 | 126.9 | 183.9 | 51.5 | – | – | – | – | – | – | – | – | –
13 | CC(=O)c1ccc(C(=O)N2CCC3(CC2)OCCN3C(=O)c2ccc(C(C)=O)cc2)cc1 [Compound C0054] | 47.0 | 54.5 | 98.9 | 68.2 | 127.0 | 43.5 | – | – | – | – | – | – | – | – | –
14 | CC1CCC(C(C)C)C(OCC(O)CN2CCCC2)C1 (stereo not drawn) [Compound A0001] | 63.1 | 78.9 | 83.8 | 94.3 | 181.7 | 22.2 | – | – | – | – | – | – | – | – | –
15 | COc1cc(OC)cc(C(=O)CC2c3c(cc4c(c3OC)OCO4)CC[N+]2(C)C)c1 (stereo not drawn) [Compound B0035] | 109.8 | 93.2 | 142.4 | 188.0 | 248.7 | 74.2 | – | – | – | – | – | – | – | – | –
16 | COc1cccc(OC)c1CC(=O)CC1c2c(cc3c(c2OC)OCO3)CC[N+]1(C)C (stereo not drawn) [Compound B0036] | 39.2 | 52.1 | 199.7 | 61.4 | 120.6 | 65.1 | – | – | – | – | – | – | – | – | –
17 | O=S(=O)(c1ccccc1Oc1ccccc1)N1CCC2(CC1)NCCO2 [Compound C0149M-2] | 122.0 | 124.8 | 102.3 | – | – | – | – | – | – | – | – | – | 209.8 | 93.4 | 406.7
18 | COc1ccccc1CC(=O)CC1c2c(cc3c(c2OC)OCO3)CC[N+]1(C)C (stereo not drawn) [Compound 5009] | 66.9 | 83.2 | 181.5 | 128.5 | 270.4 | 87.5 | – | – | – | – | – | – | – | – | –
19 | CC(=O)c1ccc(C(=O)N2CCOC23CCN(S(=O)(=O)c2ccc(C(C)=O)cc2)CC3)cc1 [Compound C0053] | 71.7 | 67.5 | 211.6 | 104.0 | 157.2 | 93.1 | – | – | – | – | – | – | – | – | –
20 | COc1ccccc1CC(O)CC1c2c(cc3c(c2OC)OCO3)CCN1C (stereo not drawn) [Compound B0030] | 62.6 | 103.4 | 172.9 | 107.2 | 276.1 | 90.1 | – | – | – | – | – | – | – | – | –
21 | COc1ccc(OCC(O)CN2CC(C)OC(C)C2)cc1 (stereo not drawn) [Compound A0048] | 119.1 | 109.7 | 226.3 | 233.7 | 302.9 | 167.2 | – | – | – | – | – | – | – | – | –
22 | CC1CN(CC(O)COc2cccc(C(F)(F)F)c2)CC(C)O1 (stereo not drawn) [Compound A0051] | 148.0 | 140.1 | 286.3 | 290.4 | 386.6 | 211.6 | – | – | – | – | – | – | – | – | –
